The values below are quoted from earlier work in US6184241A, “Aspartic protease inhibitors” (Kansas State University Research Foundation, priority 1998, dated 2001).

For the data set the following is noted: heterocyclic ring.

For `c1c[nH]cn1` [imidazole], the pKa was 6.0-7.0.
